Source: patent US9902728B2, “Pyrrolo and pyrazolopyrimidines as ubiquitin-specific protease 7 inhibitors” (Forma Therapeutics, Inc., priority 2014, dated 2018)
Like-named read-outs stand apart in the source and are kept apart here.

Target: T1, USP7 (Homo sapiens, UniProt Q93009)
T1 construct: USP7, construct USP7 (208-1102) 6*His, Viva Biotech; 6xHis (C); purchased Viva Biotech
Test: USP7 Assay A (Ubitquin-Rhodamine 110 Assay)
Type: biochemical
Details: read-out: USP7_IC50
Outline: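 Enzyme and compound sat together for 30 min before Ub-Rh110 was added, in buffer of 20 mM Tris-HCl (pH 8.0), 1 mM GSH, 0.03% BGG and 0.01% Triton X-100.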

[1] = USP7 activity in USP7 assay A and B (table does not say which assay per compound)
[2] = USP7 assay A and B (table does not say which assay per compound)

T1 sequence (Q93009 208-1102): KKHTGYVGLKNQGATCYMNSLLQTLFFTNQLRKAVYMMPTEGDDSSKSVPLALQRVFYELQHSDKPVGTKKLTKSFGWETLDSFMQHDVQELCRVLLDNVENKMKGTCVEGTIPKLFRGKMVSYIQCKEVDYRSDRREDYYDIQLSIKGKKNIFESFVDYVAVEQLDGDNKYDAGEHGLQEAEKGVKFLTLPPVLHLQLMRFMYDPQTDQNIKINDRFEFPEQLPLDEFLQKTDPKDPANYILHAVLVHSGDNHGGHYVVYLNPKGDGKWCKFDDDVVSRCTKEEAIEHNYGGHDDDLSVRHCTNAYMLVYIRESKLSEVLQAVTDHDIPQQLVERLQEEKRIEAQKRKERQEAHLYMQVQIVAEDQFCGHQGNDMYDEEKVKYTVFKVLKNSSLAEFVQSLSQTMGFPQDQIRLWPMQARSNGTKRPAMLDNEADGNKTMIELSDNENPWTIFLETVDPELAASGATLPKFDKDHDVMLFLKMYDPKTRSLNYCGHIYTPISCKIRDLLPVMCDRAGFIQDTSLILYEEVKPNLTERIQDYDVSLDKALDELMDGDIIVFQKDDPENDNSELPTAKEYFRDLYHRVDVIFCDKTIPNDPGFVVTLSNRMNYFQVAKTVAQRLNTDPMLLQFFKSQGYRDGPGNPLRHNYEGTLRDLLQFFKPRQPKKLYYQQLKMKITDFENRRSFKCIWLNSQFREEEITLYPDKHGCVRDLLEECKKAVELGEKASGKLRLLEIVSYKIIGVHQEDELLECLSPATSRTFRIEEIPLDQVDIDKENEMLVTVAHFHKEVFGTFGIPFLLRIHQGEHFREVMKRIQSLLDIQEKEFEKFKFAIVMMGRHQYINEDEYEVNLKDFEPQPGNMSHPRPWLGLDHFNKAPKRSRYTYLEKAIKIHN

Row | Compound | IC50 [1] [µM] | IC50 [2] [µM]
1 | CC1(C(=O)N2CCC(O)(Cn3cnc4c(cnn4-c4ccc(Cl)cc4)c3=O)CC2)CC1 [Compound I-1632] | 1 to 10 | –
2 | O=C(C1CCC(Nc2ccccc2)CC1)N1CCC(O)(Cn2cnc3c(cnn3-c3ccc(F)cc3)c2=O)CC1 (centres unmarked) [Compound I-768] | < 0.2 | –
3 | O=C(C1CC1)N1CCC(O)(Cn2cnc3c(cnn3-c3ccc(N4CCCc5ncccc54)cc3)c2=O)CC1 [Compound I-1727] | 1 to 10 | –
4 | O=C(c1ccc(F)cc1)N1CCC(O)(Cn2cnc3c(cnn3-c3ccc(-c4cnn(C5CC5)c4)cc3)c2=O)CC1 [Compound I-1746] | 0.2 to 1 | –
5 | O=C(C1CCC(Oc2ccncc2)CC1)N1CCC(O)(Cn2cnc3c(cnn3-c3ccc(F)cc3)c2=O)CC1 (centres unmarked) [Compound I-752] | < 0.2 | –
6 | O=C(C[C@H](C(F)F)n1cc(F)cn1)N1CCC(O)(Cn2cnc3c(cnn3-c3ccc(F)cc3)c2=O)CC1 [Compound I-1159] | < 0.2 | –
7 | Cn1ccc(OC2CCC(C(=O)N3CCC(O)(Cn4cnc5c(ccn5-c5ccc(F)cc5)c4=O)CC3)CC2)n1 (centres unmarked) [Compound I-1067] | 0.2 to 1 | –
8 | O=C(C1CC1)N1CCC(O)(Cn2cnc3c(cnn3-c3ccc(Oc4ccccc4)cc3)c2=O)CC1 [Compound I-296] | – | 1 to 10
9 | Cc1ncc(OC2CCC(C(=O)N3CCC(O)(Cn4cnc5c(cnn5-c5ccc(F)cc5)c4=O)CC3)CC2)cn1 (centres unmarked) [Compound I-1022] | 0.2 to 1 | –
10 | Cn1cc(Oc2ccc(C(=O)N3CCC(O)(Cn4cnc5c(cnn5-c5ccc(F)cc5)c4=O)CC3)cc2)cn1 [Compound I-562] | 1 to 10 | –
11 | O=C(C1CC(Nc2ccccn2)C1)N1CCC(O)(Cn2cnc3c(cnn3-c3ccc(F)cc3)c2=O)CC1 (centres unmarked) [Compound I-1034] | 1 to 10 | –
12 | Cc1nnnn1-c1ccc(C(=O)N2CCC(O)(Cn3cnc4c(cnn4-c4ccc(Cl)cc4)c3=O)CC2)cc1 [Compound I-1089] | 0.2 to 1 | –
13 | O=C(c1cnn(C2CC2)c1)N1CCC(O)(Cn2cnc3c(ccn3-c3ccc(F)cc3)c2=O)CC1 [Compound I-1079] | 0.2 to 1 | –
14 | O=C(c1ccc(Oc2ncccn2)cc1)N1CCC(O)(Cn2cnc3c(cnn3-c3ccc(Cl)cc3)c2=O)CC1 [Compound I-1528] | – | 1 to 10
15 | CN(C)CCOc1cc(-n2ncc3c(=O)n(CC4(O)CCN(C(=O)C5CC5)CC4)cnc32)ccc1-c1ccccc1 [Compound I-856] | – | 0.2 to 1
16 | CC1(C(=O)N2CCC(O)(Cn3cnc4c(cnn4-c4ccc(N5CCN(C6COC6)CC5)cc4)c3=O)CC2)CC1 [Compound I-1701] | 0.2 to 1 | –
17 | CN[C@@H]1CCN(c2ccc(-c3ccc(-n4ncc5c(=O)n(CC6(O)CCN(C(=O)C7CC7)CC6)cnc54)cc3)cc2)C1 [Compound I-690] | 0.2 to 1 | –
18 | O=C(c1ccccc1)N1CCC(O)(Cn2cnc3c(cnn3-c3ccccc3)c2=O)CC1 [Compound I-153] | – | 1 to 10
19 | C=CS(=O)(=O)Nc1ccc(C(=O)N2CCC(O)(Cn3cnc4c(cnn4-c4ccccc4)c3=O)CC2)cc1 [Compound I-173] | – | 0.2 to 1
20 | CN1CCN(c2ccc(-n3ncc4c(=O)n(CC5(O)CCN(C(=O)c6ccccc6)CC5)cnc43)cc2F)CC1 [Compound I-970] | – | 1 to 10
21 | O=C(c1ccc(F)cc1)N1CCC(O)(Cn2cnc3c(cnn3-c3ccc(N4CCCn5ccnc54)cc3)c2=O)CC1 [Compound I-1170] | 0.2 to 1 | –
22 | CC(C)OCCNc1cccc(-n2ncc3c(=O)n(CC4(O)CCN(C(=O)C5CC5)CC4)cnc32)c1 [Compound I-1196] | – | 1 to 10
23 | O=C(C[C@@H](C(F)F)n1ccc(F)n1)N1CCC(O)(Cn2cnc3c(cnn3-c3cccc(N4CCOCC4)c3)c2=O)CC1 [Compound I-789] | < 0.2 | –
24 | Cn1ncc2c(=O)n(CC3(O)CCN(C(=O)CC(C(F)F)n4ccc(F)n4)CC3)cnc21 (single isomer, unassigned) [Compound I-1698] | > 10 | –

Row | Compound | IC50 [1] [µM] | IC50 [2] [µM]
25 | O=C(c1cnc(N2CCCCC2)o1)N1CCC(O)(Cn2cnc3c(cnn3-c3ccc(F)cc3)c2=O)CC1 [Compound I-536] | – | 1 to 10
26 | CC1(O)CCN(Cc2cccc(C(=O)N3CCC(O)(Cn4cnc5c(cnn5-c5ccc(F)cc5)c4=O)CC3)c2)C1 (centres unmarked) [Compound I-601] | – | > 10
27 | O=C(C1CCC(Nc2cccc(F)n2)CC1)N1CCC(O)(Cn2cnc3c(cnn3-c3ccc(F)cc3)c2=O)CC1 (centres unmarked) [Compound I-1023] | < 0.2 | –
28 | CC1(C)CC(NC(=O)N2CCC(O)(Cn3cnc4c(cnn4-c4ccc(F)cc4)c3=O)CC2)C1 [Compound I-482] | – | > 10
29 | C[C@]1(O)CCN(c2ccc(-n3ncc4c(=O)n(CC5(O)CCN(C(=O)C[C@@H](C(F)F)n6cccn6)CC5)cnc43)cc2)C1 [Compound I-835] | < 0.2 | –
30 | O=C(c1ccc(CN2CCCC2)cc1)N1CCC(O)(Cn2cnc3c(cnn3-c3ccc(F)cc3)c2=O)CC1 [Compound I-529] | – | 1 to 10
31 | O=C(C1CC1)N1CCC(O)(Cn2cnc3c(cnn3-c3ccc(F)cc3)c2=O)CC1 [Compound I-38] | – | 1 to 10
32 | O=C(c1cccn1Cc1ccc(F)cc1)N1CCC(O)(Cn2cnc3c(cnn3-c3ccc(F)cc3)c2=O)CC1 [Compound I-558] | 0.2 to 1 | –
33 | O=C(c1ccnc(Cl)c1)N1CCC(O)(Cn2cnc3c(cnn3-c3ccccc3)c2=O)CC1 [Compound I-287] | – | 1 to 10
34 | Cn1cc(OC2CCN(C(=O)N3CCC(O)(Cn4cnc5c(cnn5-c5ccc(F)cc5)c4=O)CC3)CC2)cn1 [Compound I-923] | 1 to 10 | –
35 | Cn1cnc(C(=O)N2CCC(O)(Cn3cnc4c(cnn4-c4ccccc4)c3=O)CC2)c1 [Compound I-155] | – | 1 to 10
36 | O=C(c1cnc(C2CC2)o1)N1CCC(O)(Cn2cnc3c(cnn3-c3ccc(C4CC4)cc3)c2=O)CC1 [Compound I-629] | < 0.2 | –
37 | O=C(c1ccc(F)cc1)N1CCC(O)(Cn2cnc3c(cnn3-c3cnn(-c4ccccc4)c3)c2=O)CC1 [Compound I-704] | – | 1 to 10
38 | CN1CCC(Oc2ccc(C(=O)N3CCC(O)(Cn4cnc5c(cnn5-c5ccc(Cl)cc5)c4=O)CC3)cn2)C1 (centres unmarked) [Compound I-920] | 1 to 10 | –
39 | O=C(c1ccc(F)cc1)N1CCC(O)(Cn2cnc3c(cnn3-c3ccc(N4CCN5CCCC[C@@H]5C4)cc3)c2=O)CC1 [Compound I-484, (R)-5-((1-(4-fluorobenzoyl)-4-hydroxypiperidin-4-yl)methyl)-1-(4-(octahydro-2H-pyrido[1,2-a]pyrazin-2-yl)phenyl)-1,5-dihydro-4H-pyrazolo[3,4-d]pyrimidin-4-one] | < 0.2 | –
40 | Cc1ccn(-c2ccc(-n3ncc4c(=O)n(CC5(O)CCN(C(=O)C6(C)CC6)CC5)cnc43)cc2)n1 [Compound I-1710] | 0.2 to 1 | –
41 | Cc1ccn(-c2ccc(-n3ncc4c(=O)n(CC5(O)CCN(C(=O)C6(C)COC6)CC5)cnc43)cc2)n1 [Compound I-1711] | 1 to 10 | –
42 | CCN(Cc1ccc(-n2ncc3c(=O)n(CC4(O)CCN(C(=O)C5CC5)CC4)cnc32)cc1)C1CCCCC1 [Compound I-416] | – | 1 to 10
43 | C[C@H](CC(=O)N1CCC(O)(Cn2cnc3c(cnn3-c3ccc(F)cc3)c2=O)CC1)c1ccccc1 [Compound I-65] | – | < 0.2
44 | CN(C)C(=O)N1CCC(O)(Cn2cnc3c(cnn3-c3ccc(N4CCC(F)(F)CC4)cc3)c2=O)CC1 [Compound I-1461] | – | 1 to 10
45 | O=C(c1ccc(N2CC3CC2CN3)cc1)N1CCC(O)(Cn2cnc3c(cnn3-c3ccc(F)cc3)c2=O)CC1 (centres unmarked) [Compound I-1005] | 1 to 10 | –
46 | CC(C)(C)c1ccc(-n2ncc3c(=O)n(CC4(O)CCN(C(=O)C5CC5)CC4)cnc32)cc1 [Compound I-25] | – | 0.2 to 1
47 | O=C(C[C@H](C(F)F)n1cccn1)N1CCC(O)(Cn2cnc3c(cnn3-c3ccc(Cl)cc3)c2=O)CC1 [Compound I-1131] | 1 to 10 | –
